Source: US20250152633A1, “CELLS HAVING IMPROVED PROLIFERATIVE CAPACITY AND REDUCED CELLULAR SENESCENCE” (BOARD OF REGENTS, THE UNIVERSITY OF TEXAS SYSTEM, priority 2023, published 2025)
“Also recorded” adds a separate entry of the source. Read-outs that look alike come from different tables or passages of the source. Bridge positions count the residues as written; N and C are the ends. Ends that are not written are not given here.

Legend:
MSCs from aged donors = experiment: BrdU proliferation assay (DNA synthesis) after mechanical and chemical treatment; assay type: cell-based, human; details: for DNA synthesis (BrdU assay): co-treatment with brachial loading, 5 μM KU55933 or 5 mM NAC, aged donor MSCs, vs. static control
Protocol: Cell lines and cell culture. Human mesenchymal stem cells (Promocell) were cultured in low glucose DMEM medium supplemented with 15% fetal bovine serum, L-glutamine and penicillin/streptomycin. Following trypsinization, cells were seeded on the membranes at 20,000 cells per cm^2 before mechanical loading. The cells were used between passages 4-6, unless otherwise specified. The MSCs were derived from a donor 1, unless otherwise specified. A subset of the studies were performed using MSCs from donor 2, or donor 3, or donor 4. A subset of the studies used MSCs derived from a young, healthy donor. Human umbilical vein endothelial cells (HUVECs; PromoCell GmbH) were cultured in MCDB 131 medium supplemented with 7.5% fetal bovine serum, L-glutamine and penicillin/streptomycin and EGM-2 SingleQuot Kit (Thermo Fisher Scientific, Inc.). All cells were cultured in an incubator at 37° C. under a 5% CO2 atmosphere.
Application of biomechanical treatment. Mechanical strain was applied to cell culture using a high throughput system described previously (Lee et al., 2013; Lee & Baker, 2015; Lee et al., 2020). Briefly, cells are cultured on custom made plates that are mounted on a system that applies strain. The cell culture plates were comprised of silicone membranes (0.005″ thickness; Specialty Manufacturing, Inc.) that are sandwiched between two plates, with silicone rubber gaskets at the interfaces to prevent leaking. These cell culture membranes are UV sterilized and coated with 50 μg/mL fibronectin overnight at 37° C. to allow cell adhesion. After cell attachment, the plates are mounted on to the top plate of the system using screws. To apply mechanical strain, a platen with 36 Teflon pistons is moved into the cell culture membrane. The motion is driven by a hygienically sealed, voice coil-type linear motor (Copley Controls). The platen is stabilized using six motion rails mounted with linear motion bearings. […]
BrdU Proliferation Assay. […] Absorbance was read at 450 nm using a FlexStation-3 plate reader (Molecular Devices). […]

[1] = test system: MSCs from an aged donor one; experiment: Western blotting of protein expression after treatment of MSCs; assay type: cell-based, human; details: for SIRT6 expression (Western blotting): brachial+NAC (5 mM) or KU55933 (5 μM) treatment; for DNA damage repair protein KU80 expression (Western blotting): brachial+NAC (5 mM) or brachial+KU55933 (5 μM), compared to control groups
Protocol: Application of biomechanical treatment. Mechanical strain was applied to cell culture using a high throughput system described previously (Lee et al., 2013; Lee & Baker, 2015; Lee et al., 2020). Briefly, cells are cultured on custom made plates that are mounted on a system that applies strain. The cell culture plates were comprised of silicone membranes (0.005″ thickness; Specialty Manufacturing, Inc.) that are sandwiched between two plates, with silicone rubber gaskets at the interfaces to prevent leaking. These cell culture membranes are UV sterilized and coated with 50 μg/mL fibronectin overnight at 37° C. to allow cell adhesion. After cell attachment, the plates are mounted on to the top plate of the system using screws. To apply mechanical strain, a platen with 36 Teflon pistons is moved into the cell culture membrane. The motion is driven by a hygienically sealed, voice coil-type linear motor (Copley Controls). The platen is stabilized using six motion rails mounted with linear motion bearings. The hygienically sealed motor housing has chilled water running through in order to prevent overheating during operation. Unless otherwise specified, loading was applied for 4 hours per day for 7 days with or without 1 μm the EGFR/ErbB-2/ErbB-4 Inhibitor (CAS 881001-19-0; Table 3).
Cell lysis and immunoblotting. Following the treatments, the cells were lysed in 20 mM Tris with 150 mM NaCl, 1% Triton X-100, 0.1% SDS, 2 mM sodium orthovandate, 2 mM PMSF, 50 mM NaF and a protease inhibitor cocktail (Roche, Inc.). The proteins were separated on a NuPAGE 10% bis-tris midi gel (Novex) and transferred to nitrocellulose membrane using iBlot transfer stack (Novex). The membranes were blocked for one hour in 5% non-fat milk in PBS with 0.01% tween-20 (PBST). After washing twice in PBST, cells were incubated with primary antibodies (Table 1) overnight in 1% non-fat milk at 4° C. The membranes were washed with PBST and incubated at room temperature for two hours with secondary antibody. The membrane was treated with chemiluminescent substrate (SuperSignal West Femto; Thermo Fisher Scientific, Inc.) then imaged using a digital imaging system (Cell Biosciences, Inc.).
(§1) Conditioning of hMSCs using biochemical factors. For mechanistic experiments involving chemical factors and biological inhibitors, cells were incubated with the chemical treatments as shown in Table 3. The cells were treated with mechanical loading for 4 hours/day under brachial waveform at 0.1 Hz and 7.5% maximum strain or cultured under static conditions. The culture media containing the treatments were replaced on day 3 and day 5 for all 7-day treatments.

[2] = test system: MSCs from three young, healthy donors; experiment: RNA-seq analysis of senescence-related gene sets; assay type: cell-based, human; details: brachial loading and E/E inhibitor; young donor MSCs; age-, oncogenic-, stress-, developmental- and inflammation-related senescence gene sets
Protocol: To investigate the treatments' effects on gene expression patterns that are correlated with senescence in MSCs, MSCs were obtained from three young, healthy donors, and conditioned with brachial loading and E/E inhibitor. Following the treatments, RNA-seq analysis was performed on the cells, and the expression of several key gene sets related to various mechanisms of senescence in MSCs was evaluated. These gene sets were identified through a thorough investigation of the literature as key mediators of MSC senescence, and the expression pattern of each gene as it pertains to MSC senescence was documented (Zhou et al., 2020; Brandl et al., 2011; Turinetto et al., 2016; Ozkul & Galderisi, 2016; Fridman & Tainsky, 2008; Ki et al., 2014; Cakouros & Gronthos, 2019; Peffers et al., 2016). […] Next, a gene set enrichment analysis (GSEA) was performed on the RNA-seq data. […] In all three senescence-related gene sets, a reduction in senescence related genes with brachial mechanical loading was observed (FIG. 1).
RNA Sequencing and Analysis. […] For sequencing, single reads of 50 base pairs were performed after poly-A mRNA capture using the Poly(A) Tailing Kit (Ambion) and Ultra II Directional RNA Library Prep Kit (NEB) to isolate mRNA and perform dUTP directional preparation of the mRNA library. […]

MSCs from young donors [3] = details: 1 μM inhibitor as cotreatment with brachial loading; cited from earlier work
MSCs from young donors [4] = details: 1 μM inhibitor as cotreatment with brachial loading, tube formation assay, cited from earlier work
MSCs from an aged donor = experiment: p-γ-H2AX DNA double-strand break repair foci immunostaining; assay type: cell-based, human; details: for p-γ-H2AX foci, treatment of static control cells vs. static treatment alone: 4 hours static, 3 μM GsMTx4, 2 μM Dooku 1
Protocol: Immunocytochemical staining on silicone membranes. Following the treatments, the cells were fixed in 4% paraformaldehyde in PBS for 10 minutes followed by washing and permeabilization with 0.1% Triton X-100 PBS for 5 minutes. Next, samples were blocked with PBS containing 5% FBS and 1% BSA for 40 minutes. After washing, cells were incubated with primary antibodies (see Table 2 for specific antibodies and concentrations) in PBS with 1% BSA overnight at 4° C. The samples were then washed twice in PBS with 1% BSA and incubated with secondary antibodies in PBS with 1% BSA for 2 hours in a light protected environment. Cells treated with extensive washes with PBS with 1% BSA prior to mounting in anti-fade media (Vector Laboratories, Inc.). The samples were then imaged using confocal microscopy with a LSM 710 laser scanning confocal microscope (Carl Zeiss, Inc.).
p-γ-H2AX Foci Analysis. Following confocal imaging, images were analyzed with FIJI software to count p-γ-H2AX histone foci. Three-dimensional image stacks were maximum intensity projected to generate two-dimensional images with 12-bit range of 0-4095. Background signal outside of nuclei boundaries was measured and subtracted from the image. Individual cell nuclei regions of interest were selected, and an intensity threshold of 300 bits was applied. The Analyze Particle plugin was applied to count the p-γ-H2AX foci in each nucleus, with a minimum particle size of 0.5 μm applied. At least 100 individual cell nuclei were analyzed for each treatment group to calculate the mean foci count per cell, mean foci count per nuclear area, and standard errors.
as §1

aged MSCs = experiment: β-Galactosidase staining of senescent cell phenotypes; assay type: cell-based, human; details: 5 mM NAC or 5 μM KU55933, with or without brachial loading; vs. static control
Protocol: Conditioning of hMSCs using biochemical factors. For mechanistic experiments involving chemical factors and biological inhibitors, cells were incubated with the chemical treatments as shown in Table 3. The cells were treated with mechanical loading for 4 hours/day under brachial waveform at 0.1 Hz and 7.5% maximum strain or cultured under static conditions. The culture media containing the treatments were replaced on day 3 and day 5 for all 7-day treatments. β-Galactosidase Analysis. Following the treatments, cell culture media was removed, and cells were washed once with PBS. Cells were fixed and stained for β-Galactosidase following the protocol of the Senescence β-Galactosidase Staining Kit (Cell Signaling Technologies). Following staining, cells were stored with 70% glycerol and imaged using a light microscope (Meiji, Inc.). Images were post-processed in Adobe Photoshop to increase image contrast and visibility of β-Galactosidase+ cells. Total cells and β-Galactosidase+ cells were manually counted in FIJI, with at least 1,000 cells counted per treatment group.

CC#CC(=O)Nc1cc2c(Nc3ccc(F)c(Cl)c3)ncnc2cn1 [E/E inhibitor]
DNA synthesis (BrdU proliferation assay) (MSCs from aged donors; brachial loading 7.5% strain, 4 hours per day for 7 days + 1 μM E/E inhibitor, MSCs from three donors (68-92 years), relative to static control): increased DNA synthesis in two of three donor lines
expression of antioxidant enzyme SOD1 (Western blotting) ([1]; brachial loading and E/E inhibitor treatments, aged donor one MSCs): significantly upregulated expression
oxidative stress signaling protein expression, FOX0 transcription factors (Western blotting) ([1]; brachial+E/E inhibitor, 4 hours per day for 7 days, aged donor one MSCs, vs. static control): upregulation of FOX01, p-FOX01, FOX03a, p-FOX03a, and p-FOX04
Sirtuin protein expression (Western blotting) ([1]; brachial+E/E treatment, donor one MSCs, in comparison to static control): upregulation of p-SIRT1, SIRT6, and SIRT7
senescence-related gene expression patterns (RNA-seq) [2]: reversed the effects implicated by senescence
MSCs that expressed the markers for both endothelial cells and pericytes (MSCs from young donors [3]): dramatic increase
angiogenic activity / angiogenic properties of MSCs (MSCs from young donors [4]; listed as EGFR/ErbB-2/4 (E/E) inhibitor): enhanced angiogenic activity
angiogenic activity / angiogenic properties of MSCs (MSCs from young donors [4]; listed as EGFR/ErbB-2/4 (E/E)): synergistically enhances the angiogenic properties

CC(Nc1nc(N2CCCC2)nc2ccccc12)c1ccccc1 (stereo not drawn) [Importazole]
p-γ-H2AX foci, co-treatment with brachial loading vs. brachial loading alone (MSCs from an aged donor; 4 hours brachial loading, 40 μM Importazole): significantly more p-γ-H2AX foci than treatment with brachial loading alone

O=c1cc(-c2cccc3c2Sc2ccccc2S3)oc(N2CCOCC2)c1 [KU55933]
DNA synthesis (BrdU assay) (MSCs from aged donors): significantly higher DNA synthesis
SIRT6 expression (Western blotting) ([1]; vs. static control): no significant change
DNA damage repair protein KU80 expression (Western blotting) [1]: remained statistically unchanged

CC(=O)N[C@@H](CS)C(=O)O [NAC, N-acetyl-L cysteine]
DNA synthesis (BrdU assay) (MSCs from aged donors): not under brachial+NAC treatment; also recorded: a reduction of proliferative enhancement was observed
SIRT6 expression (Western blotting) ([1]; vs. static control): significant upregulation
DNA damage repair protein KU80 expression (Western blotting) [1]: remained statistically unchanged
percentage of β-galactosidase+ cells (aged MSCs): significant reduction

Dooku1
p-γ-H2AX foci, treatment of static control cells vs. static treatment alone (MSCs from an aged donor): significantly more p-γ-H2AX foci than static treatment alone

GsMTx4: directly inhibits Piezo1 channel activity (Tocris 4912) (GCLEFWWKCNPNDDKCCRPKLKCSKLFKLCNFSF; disulfide 16-30, 2-17, 9-23; not fully specified (C-terminus); ends not checked; UniProt Q7YT39 47-80, looked up)
p-γ-H2AX foci, treatment of static control cells vs. static treatment alone (MSCs from an aged donor): significantly more p-γ-H2AX foci than static treatment alone
